Source: patent US20230226074A1, “METHODS OF USE FOR PYRIMIDINES AS FERROPORTIN INHIBITORS” (Global Blood Therapeutics, Inc., priority 2020, published 2023)

Molecular target: T1, human ferroportin (Homo sapiens, UniProt Q9NP59)
T1 construct: luciferase reporter (probably NanoLuc, inferred from the Nano-Glo Luciferase Assay System read-out); expressed in transfected cells; host or cells: CHO cells, stably transfected, expression induced with doxycycline
T1 sequence (Q9NP59 1-571): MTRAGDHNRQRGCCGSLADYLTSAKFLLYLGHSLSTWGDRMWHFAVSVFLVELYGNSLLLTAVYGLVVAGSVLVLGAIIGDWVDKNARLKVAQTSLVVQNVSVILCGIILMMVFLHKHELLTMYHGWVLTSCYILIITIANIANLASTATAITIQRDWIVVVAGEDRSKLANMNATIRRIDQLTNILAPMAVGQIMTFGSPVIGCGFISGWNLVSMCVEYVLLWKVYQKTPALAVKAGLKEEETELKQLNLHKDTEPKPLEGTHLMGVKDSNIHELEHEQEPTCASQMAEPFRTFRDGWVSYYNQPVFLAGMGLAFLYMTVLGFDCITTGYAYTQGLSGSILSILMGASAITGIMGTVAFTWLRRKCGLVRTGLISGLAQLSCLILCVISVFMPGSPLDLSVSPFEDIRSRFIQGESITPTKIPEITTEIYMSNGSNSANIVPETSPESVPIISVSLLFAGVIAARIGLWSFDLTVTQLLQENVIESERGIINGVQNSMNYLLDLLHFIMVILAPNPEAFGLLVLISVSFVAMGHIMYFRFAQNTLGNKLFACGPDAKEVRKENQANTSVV
Assay: In-vitro ferroportin internalization assay (luciferase reporter)
Format: cell-based
Conditions: average pEC50; stably-transfected CHO cell line expressing human ferroportin tagged to a luciferase reporter; 6 h incubation with test compound
Procedure: The protocol for this assay is generally as described in WO2018/128828, incorporated herein by reference in its entirety. Functional internalization of ferroportin protein was measured using a stably-transfected CHO cell line expressing the human ferroportin tagged to a luciferase reporter. Cells were plated for 24 h in the presence of ferric ammonium citrate (FAC). Ferroportin protein expression was induced with doxycycline for 24 h. The next day, the compounds were added. Test compounds were dissolved in DMSO. Cells were incubated with the test compounds for 6 h, and subsequently luciferase activity was measured using the Nano-Glo Luciferase Assay System and Glomax (Promega, Madison, Wis.). The average pEC50 was determined for the test compounds.

SMILES | pEC50
CCN(CCO)c1nc(-c2ccccn2)nc2sc(C)c(-c3ccccc3)c12 [Compound 244, 2-{ethyl[6-methyl-5-phenyl-2-(pyridin-2-yl)thieno[2,3-d]pyrimidin-4-yl]amino}ethan-1-ol] | 5.4
CC1CC(=O)NCCN1c1nc(-c2ccccn2)nc2scc(-c3ccccc3)c12 (centres unmarked) [Compound 245, 7-methyl-1-[5-phenyl-2-(pyridin-2-yl)thieno[2,3-d]pyrimidin-4-yl]-1,4-diazepan-5-one] | 5.5
CN(CCCc1n[nH]c(N)c1C#N)c1nc(-c2ccccn2)nc2scc(-c3ccccc3)c12 [Compound 246, 5-amino-3-(3-{methyl[5-phenyl-2-(pyridin-2-yl)thieno[2,3-d]pyrimidin-4-yl]amino}propyl)-1H-pyrazole-4-carbonitrile] | 6.2
COc1ccc(NC(=O)[C@@H](C(C)C)N(C)c2nc(-c3ccccn3)nc3c2CCC3)cn1 [Compound 315, (2R)-N-(6-methoxypyridin-3-yl)-3-methyl-2-{methyl[2-(pyridin-2-yl)-5H,6H,7H-cyclopenta[d]pyrimidin-4-yl]amino}butanamide] | 7.3
COc1ccc(NC(=O)CN(C)c2nc(-c3cc4cn[nH]c4cn3)nc3c2CCC3)nc1 [Compound 334, N-(5-methoxypyridin-2-yl)-2-[methyl(2-{1H-pyrazolo[3,4-c]pyridin-5-yl}-5H,6H,7H-cyclopenta[d]pyrimidin-4-yl)amino]acetamide] | 7.5
CN(C)CCOc1ccnc(-c2nc3c(c(N(C)CC(=O)NC(C)(C)C)n2)CCC3)c1 [Compound 417, N-tert-butyl-2-[(2-{4-[2-(dimethylamino)ethoxy]pyridin-2-yl}-5H,6H,7H-cyclopenta[d]pyrimidin-4-yl)(methyl)amino]acetamide] | 7.7
CN(CC(=O)N1CC2CC(C2)C1)c1nc(-c2cc(OCCO)ccn2)nc2c1CCC2 [Compound 433, 1-{3-azabicyclo[3.1.1]heptan-3-yl}-2-({2-[4-(2-hydroxyethoxy)pyridin-2-yl]-5H,6H,7H-cyclopenta[d]pyrimidin-4-yl}(methyl)amino)ethan-1-one] | 8.1
CN(CC(=O)NC(C)(C)C)c1nc(-c2cc(OC[C@H](O)CO)ccn2)nc2c1CCC2 [Compound 484, N-tert-butyl-2-[(2-{4-[(2R)-2,3-dihydroxypropoxy]pyridin-2-yl}-5H,6H,7H-cyclopenta[d]pyrimidin-4-yl)(methyl)amino]acetamidede] | 7.7
